Tested on: Puccinia recondita
Assay: Protective activity against Puccinia recondita on wheat (brown rust of wheat)
Format: in vivo
Conditions: individual active compound, wheat leaves, visual rating
Procedure: The active compounds, separately or jointly, were prepared as a stock solution comprising 0.25% by weight of active compound in acetone or DMSO. 1% by weight of the emulsifier Uniperol® EL (welting agent having emulsifying and dispersant action based on ethoxylated alkylphenols) was added to this solution, and the mixture was diluted with water to the desired concentration.
Leaves of potted wheat seedlings of the cultivar “Kanzler” were sprayed to runoff point with an aqueous suspension having the concentration of active compound stated below. The next day, the treated plants were inoculated with a spore suspension of brown rust of wheat (Puccinia recondita). The plants were then placed in a chamber with high atmospheric humidity (90 to 95%) at 20 to 22° C. for 24 hours. During this time, the spores germinated and the germinal tubes penetrated into the leaf tissue. The next day, the test plants were returned to the greenhouse and cultivated at temperatures between 20 and 22° C. and at 65 to 70% relative atmospheric humidity for a further 7 days. The extent of the development of the rust fungus on the leaves was then determined visually.
The visually determined percentages of infected leaf areas were converted into efficacies in % of the untreated control:
The efficacy (E) is calculated as follows using Abbot's formula: E=(1−α/β)·100 α corresponds to the fungicidal infection of the treated plants in % and β corresponds to the fungicidal infection of the untreated (control) plants in %
An efficacy of 0 means that the infection level of the treated plants corresponds to that of the untreated control plants; an efficacy of 100 means that the treated plants were not infected.
The expected efficacies of mixtures of active compounds were determined using Colby's formula (Colby, S. R. “Calculating synergistic and antagonistic responses of herbicide combinations”, Weeds, 15, 20-22, 1967) and compared with the observed efficacies.
Colby's Formula: E=x+y−x·y/100 • E expected efficacy, expressed in % of the untreated control, when using the mixture of the active compounds A and B at the concentrations a and b • x efficacy, expressed in % of the untreated control, when using the active compound A at the concentration a
y efficacy, expressed in % of the untreated control, when using the active compound B at the concentration b

Structure (SMILES): CC1CCN(c2c(-c3c(F)cc(F)cc3F)c(Cl)nc3ncnn23)CC1 [compound I, 5-chloro-7-(4-methylpiperidin-1-yl)-6-(2,4,6-trifluorophenyl)-[1,2,4]triazolo[1,5-a]pyrimidine]
- Efficacy in % of the untreated control (2.5 ppm in the spray liquor): 42%
- Efficacy in % of the untreated control (5 ppm in the spray liquor): 53%

Structure (SMILES): CCN(CC)C1COC2(CCC(C(C)(C)C)CC2)O1 (centres unmarked) [compound II, (8-tert-butyl-1,4-dioxaspiro[4.5]dec-2-yl)diethylamine]
- Efficacy in % of the untreated control (1 ppm in the spray liquor): 0%
- Efficacy in % of the untreated control (2.5 ppm in the spray liquor): 0%
- Efficacy in % of the untreated control (12.5 ppm in the spray liquor): 0%
